The source of these data is patent EP4610267A1, “CYCLIC DINUCLEOTIDES AND CONJUGATES THEREOF WITH ANTIBODIES” (priority 2024, dated 2025).

What all share (details): digitonin permeabilised 293T reporter cells
Experiment [1] deals with T1, STING REF (Homo sapiens, UniProt Q86WV6).
T1 construct: expressed in transfected cells
Description: 293T STING digitonin reporter assay (REF haplotype). Type of experiment: cell-based. The method, then:
(§1) Digitonin Assay with 293T Reporter Cells. The generation of 293T reporter cells stably expressing different STING protein haplotypes (WT, HAQ, REF, AQ, or Q) was described previously (Novotna et al, J. Med. Chem. 2019,62, 10676). The cells were seeded at a density of 250 000 cells per cm^2 into 96 well white poly(D-lysine) coated plates in 100 µL of DMEM with high glucose supplemented with 10% heat inactivated FBS. Next day, the medium was removed, and compounds were added in 3-fold serial dilutions in a digitonin buffer containing 50 mM HEPES (pH 7.0), 100 mM KCl, 3 mM MgClz, 0.1 mM DTT, 85 mM sucrose, 0.2% (w/w) BSA, 1 mM ATP, 0.1 mM GTP, and 10 µg/mL digitonin A. After 30 min incubation at 37 °C with 5% CO2, the digitonin buffer was removed, cells were washed once with 100 µL of the cultivation medium, and 100 µL of fresh medium was added to each well. The plates with cells were further incubated for 5 h at 37 °C with 5% CO2. Thereafter, 50 µL of the medium was removed, and 30 µL of Bright-Glo Luciferase Assay System reagent was added to each well. […] Nonlinear regression curve fit with standard slope was used for EC50 value calculations. The EC50 value represents CDN concentration that gives half-maximal response of firefly luciferase in the 293T reporter assay.

Experiment [2] concerns the target T2, STING AQ (Homo sapiens, UniProt Q86WV6, G230A/H232R/R293Q).
T2 construct: expressed in transfected cells
The experiment can be described thus: 293T STING digitonin reporter assay (AQ haplotype). Type of experiment: cell-based. Here is the method:
as §1

The subject of experiment [3] is STING Q. Description: 293T STING digitonin reporter assay (Q haplotype). Type of experiment: cell-based, human. Here is the method: as §1

T1 sequence (Q86WV6 whole entry): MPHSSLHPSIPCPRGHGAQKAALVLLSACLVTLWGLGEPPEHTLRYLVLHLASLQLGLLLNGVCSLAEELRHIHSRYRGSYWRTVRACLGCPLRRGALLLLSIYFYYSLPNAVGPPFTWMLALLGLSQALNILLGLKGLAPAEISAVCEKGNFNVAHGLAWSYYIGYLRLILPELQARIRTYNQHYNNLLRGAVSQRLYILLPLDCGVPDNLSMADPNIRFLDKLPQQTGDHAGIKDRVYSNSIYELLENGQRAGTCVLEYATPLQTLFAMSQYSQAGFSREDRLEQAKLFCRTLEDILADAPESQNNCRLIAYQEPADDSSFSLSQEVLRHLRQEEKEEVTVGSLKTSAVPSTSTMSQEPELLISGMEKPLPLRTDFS
T2 sequence (Q86WV6 whole entry G230A/H232R/R293Q): as the sequence (Q86WV6 whole entry) above, with G230A, H232R, R293Q counted along it

With `Nc1ncnc2c1ncn2[C@@H]1O[C@@H]2OCP(=O)(S)O[C@@H]3[C@H](F)[C@@H](COP(=O)(S)OC[C@H]2[C@H]1F)O[C@H]3n1cnc2c(=O)[nH]cnc21` (single isomer, unassigned) [Compound 2.2], the concentration giving a half-maximal response (EC50) in experiment [1] was determined as 0.05 µM; in experiment [2], 0.03 µM; in experiment [3], 0.08 µM.
